Assay results as given in US8389544B2, “Isoquinolone compounds as subtype-selective agonists for melatonin receptors MT1 and MT2” (The Hong Kong University of Science and Technology, priority 2007, dated 2013).

Experiments:
Parental 293 = test: MTT cytotoxicity assay, parental 293 cells; assay type: cell-based; conditions: percentage of untreated control cells
Protocol: This assay evaluates the cytotoxic effects of the novel isoquinolone compounds based on the cellular viability under chronic treatments. Viable cells but not dead cells can turn the substrate into a colored product, which yields higher absorbance. […] A low percentage indicates low cytoviability (or high cytotoxicity).
5. Cytotoxicity Test Using MTT Assay
Cells were seeded into clear 96-well plate at an appropriate density in 100 μl growth medium and were allowed to grow overnight. The novel isoquinolone compounds were diluted to desired concentrations using fresh growth medium, and these dilutions were used to replace the growth media in each well. After incubating for 24-96 h, 10 μl of the MTT labeling reagent (Roche) was added to each well and the cells were incubated in a CO2 incubator for 4 h. 100 μl solubilization buffer was then added into each well and incubated overnight for complete solubilization of the purple formazan crystals. […] Each condition was performed in triplicate in every experiment and the results were expressed as % of blank control±SD.

MT1 receptor [1] = target: T1, MT1 receptor (Homo sapiens, UniProt P48039); test: CRE-Luc (luciferase reporter gene) assay, MT1; assay type: cell-based; design: expressed in transfected cells; conditions: HEK 293-pCREluc cells with MT1; inhibition of forskolin response
Protocol: The luciferase reporter gene assay offers another way to measure melatonin receptor activation. Cells expressing cAMP-responsive element-driven luciferase reporter gene (293-pCREluc) and either the MT1 or MT2 receptor are treated with forskolin (a substance which stimulates cAMP production as well as the subsequent luciferase gene expression) alone or with a novel isoquinolone compound. As melatonin receptor activation inhibits cAMP production, any suppression in the expression of luciferase leads to a decrease in enzymatic activities and a reduction in the amount of luminescence signal generated.
The luciferase assay, a reporter gene assay, was performed to confirm the ability of the invention to activate the melatonin receptors. Prior to the assay, HEK (human embryonic kidney) 293 cells are stably transfected with cAMP-responsive element-driven luciferase reporter gene (293-pCREluc) and cDNAs encoding MT1 or MT2 receptors. The cells are then exposed to the novel isoquinolone compounds, after which the substrate luciferin is added and the resulting luminescence measured.
Prior to the assay human embryonic kidney (HEK) 293 cells (CRL-1573, ATCC) is maintained at 37° C. in minimum essential medium (MEM) supplemented with 10% fetal bovine serum (FBS), 100 units/ml penicillin and 100 μg/ml streptomycin in a humidified atmosphere containing 5% CO2. Human embryonic kidney 293 cells stably transfected with cAMP-responsive element-driven luciferase reporter gene (293-pCREluc) are established and maintained in growth medium supplemented with 300 μg/ml G418 sulphate.
For luciferase assays, HEK-293 cells stably expressing pCRE-luciferase are seeded at a density of 15,000 cells/well into 96 well plates. Transfection is carried out using Lipofectamine Plus® reagent at 0.2 μl of both Plus and lipofectamine reagents with 50 ng cDNAs encoding MT1 or MT2 receptors per well. After a 3 hour transfection period at 37° C., 50 μl of DMEM with 20% fetal calf serum (FCS) is added into the wells and the plate is incubated at 37° C. for 48 h prior to 24 hour serum starvation. […]
Cells are harvested by replacing medium in the well by 50 μl luciferase lysis buffer. The Berthold microplate luminometer is maintained at 25° C. throughout the assay. Injector M connected to an empty tube and P connected to the drug tube are set to inject 25 μl of luciferin into appropriate wells. A 1.6 second delay time followed by a 1 second measuring time period is assigned to injector M, whereas injector P is measured for 10 seconds after luciferase substrate is introduced into the well. Results are expressed as relative luminescent units (RLU). Where indicated, agonist-induced activity is expressed as a percentage of the RLU obtained with forskolin.

MT1 receptor [2] = target: T1, MT1 receptor; test: Competitive [3H]melatonin binding assay, MT1; design: expressed in transfected cells; conditions: displacement of 1 nM [3H]melatonin, HEK-293 cells; log value, negative; NSB = No significant binding
Protocol: Competitive ligand binding assays were performed to examine the receptor binding characteristics of the novel isoquinolone compounds. The assay measures the ability of the novel isoquinolone compounds to bind and displace the radiolabelled endogenous ligand, [^3H]melatonin. Increasing concentrations of the novel compounds are added to displace the [^3H]melatonin-bound to MT1 or MT2 receptor-expressing cells.
4. Competitive Binding Assay
The ability of compounds to bind to MT1 and/or MT2 receptors is determined using radioligand binding assays. […] 48 hours following transfection, cells are harvested in binding buffer (50 mM Tris-HCl, 2 mM MgCl2, 1 mM EDTA, pH 7.4). 100,000 cells are incubated with 1 nM [^3H] melatonin (specific activity: 83 Ci/mmol; GE Healthcare) and appropriate concentrations (0.1 nM to 1 μM) of unlabelled ligands in a total volume of 100 μl in 96-well plates (PerkinElmer Life And Analytical Sciences, Inc., Boston, Mass.) for 2 hours at room temperature. Reactions are terminated by rapid filtration through a 96-well cell harvester onto 96-well GF/C filter mats. Filters are washed with 500 μl of ice-cold binding buffer, dried and sealed in a polyethylene bag with 3.5 ml of scintillation fluid and counted for tritium in a Microbeta Jet scintillation counter. […] Data are analyzed by nonlinear least-squares regression using GraphPad Prism 3.02.

MT1 receptor [3] = target: T1, MT1 receptor; test: cAMP assay, MT1; assay type: cell-based; design: expressed in transfected cells; host or cells: COS-7 (monkey kidney fibroblast); conditions: inhibition of forskolin-stimulated cAMP production; MT1-expressing cells

T1 sequence (P48039 whole entry): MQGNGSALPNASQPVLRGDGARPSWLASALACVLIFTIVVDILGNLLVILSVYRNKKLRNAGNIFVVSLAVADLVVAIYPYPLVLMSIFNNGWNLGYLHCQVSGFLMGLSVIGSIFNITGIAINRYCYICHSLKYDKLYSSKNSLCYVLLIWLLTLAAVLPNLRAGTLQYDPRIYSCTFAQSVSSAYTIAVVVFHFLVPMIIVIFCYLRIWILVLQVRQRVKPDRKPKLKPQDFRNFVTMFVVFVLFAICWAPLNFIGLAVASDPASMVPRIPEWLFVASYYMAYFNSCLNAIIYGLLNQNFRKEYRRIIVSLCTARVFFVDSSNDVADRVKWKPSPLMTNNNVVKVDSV

Row | Compound | MTT Assay Parental 293 % Viability ± SEM (Parental 293) [%] | CRE-Luc Assay MT1 % Inh ± SEM of 1 μM Fsk (MT1 receptor [1]) [%] | Binding Assay MT1 logIC50 ± SEM (MT1 receptor [2]) | cAMP Assay MT1 % Inh (MT1 receptor [3]) [%]
1 | Cn1ccc2cc(OC(=O)c3ccccc3)c(OC(=O)c3ccccc3)cc2c1=O [IS039] | 104.9 ± 4.8 | 73.0 ± 5.0 | NSB | 8.8 ± 5.8
2 | COc1cc(COc2cc3ccn(C)c(=O)c3cc2OC)cc(OC)c1 [IS042] | 60.7 ± 0.4 | 73.9 ± 7.8 | NSB | 81.8 ± 6.2
3 | COc1cccc(COc2cc3ccn(C)c(=O)c3cc2OC)c1 [IS044] | 78.6 ± 5.8 | 82.3 ± 6.0 | NSB | 72.9 ± 7.5
4 | COc1cccc(COc2cc3c(=O)n(C)ccc3cc2OC)c1 [IS521] | 66.1 ± 4.9 | 84.2 ± 5.5 | NSB | 19.4 ± 17.4
5 | COc1cc(COc2cc3c(=O)n(C)ccc3cc2OC)cc(OC)c1 [IS523] | 37.5 ± 0.9 | 70.4 ± 5.6 | NSB | 18.6 ± 14.7
6 | COc1cc2ccn(C)c(=O)c2cc1OCc1ccc(C(C)(C)C)cc1 [IS526] | 27.5 ± 18.9 | 36.2 ± 11.8 | NSB | 26.9 ± 24.1
7 | COc1cccc(COc2c(OC)ccc3c(=O)n(C)ccc23)c1 [IS527] | 36.8 ± 0.0 | 82.4 ± 6.4 | NSB | 28.3 ± 16.0
8 | COc1cc(COc2c(OC)ccc3c(=O)n(C)ccc23)cc(OC)c1 [IS528] | 32.2 ± 2.3 | 69.7 ± 10.1 | NSB | 39.2 ± 12.0
9 | COc1ccc2c(=O)n(C)ccc2c1OCc1ccc(C)cc1 [IS529] | 35.9 ± 0.4 | 67.7 ± 5.4 | NSB | 34.0 ± 17.4
